Measured values: PubChem BioAssay AID2060885 (Molecular Pharmacology Branch, DTP, NCI, 2025)
pIC50: −log10 of the molar value.

System: NCI-H23 complex spheroids with HUVEC/MSC, viability
Experiment: Anticancer human tumor NCI-H23 cell line growth inhibition [RAS];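 also: spheroids exposed to compound for 7 days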;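 as to viability, T/C: 100% = DMSO vehicle control viability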
Settings: for pIC50: curve of first compound; for viability, T/C: stronger effect = lower value; active = viability on the fitted dose curve at most 10% of control; inactive = the rest
Summary of the method: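 Tumour cells grown as complex spheroids with HUVEC endothelial cells and mesenchymal stem cells, treated with RAS pathway inhibitor combinations. Each agent spans half-log steps from near clinical Cmax, or 10 microM where Cmax is unknown.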

C=CC(=O)N1CCN(c2nc(OCC3CCCN3C)nc3c(F)c(-c4nc(N)cc(C)c4C(F)(F)F)c(Cl)cc23)C(C)C1 (configuration not stated) + CCn1c(-c2cccnc2C(C)OC)c2c3cc(ccc31)N1CCOC(CC(NC(=O)C(C(C)C)N(C)C(=O)C3(F)CCN(C(=O)C#CC(C)(C)N(C)C)CC3)C(=O)N3CCCC(N3)C(=O)OCC(C)(C)C2)C1
inactive: viability, T/C (second compound 0.000949 µM, first compound 0.00316 µM) 34.7% | viability, T/C (second compound 0.000949 µM, first compound 0.01 µM) 35.5% | viability, T/C (second compound 0.000949 µM, first compound 0.0316 µM) 24.3% | viability, T/C (second compound 0.000949 µM, first compound 0.1 µM) 28.4% | viability, T/C (second compound 0.000949 µM, first compound 0.316 µM) 29.2% | viability, T/C (second compound 0.000949 µM, first compound 1 µM) 25.6% | viability, T/C (second compound 0.003 µM, first compound 0.00316 µM) 33.6% | viability, T/C (second compound 0.003 µM, first compound 0.01 µM) 28.5% | viability, T/C (second compound 0.003 µM, first compound 0.0316 µM) 25.6% | viability, T/C (second compound 0.003 µM, first compound 0.1 µM) 29.4% | viability, T/C (second compound 0.003 µM, first compound 0.316 µM) 31.5% | viability, T/C (second compound 0.003 µM, first compound 1 µM) 27.6% | viability, T/C (second compound 0.00949 µM, first compound 0.00316 µM) 26.8% | viability, T/C (second compound 0.00949 µM, first compound 0.01 µM) 26.7% | viability, T/C (second compound 0.00949 µM, first compound 0.0316 µM) 37.2% | viability, T/C (second compound 0.00949 µM, first compound 0.1 µM) 30.9% | viability, T/C (second compound 0.00949 µM, first compound 0.316 µM) 27.7% | viability, T/C (second compound 0.00949 µM, first compound 1 µM) 25.9% | viability, T/C (second compound 0.03 µM, first compound 0.00316 µM) 30.2% | viability, T/C (second compound 0.03 µM, first compound 0.01 µM) 30.5% | viability, T/C (second compound 0.03 µM, first compound 0.0316 µM) 35% | viability, T/C (second compound 0.03 µM, first compound 0.1 µM) 27.2% | viability, T/C (second compound 0.03 µM, first compound 0.316 µM) 27.1% | viability, T/C (second compound 0.03 µM, first compound 1 µM) 29.7% | viability, T/C (second compound 0.0949 µM, first compound 0.00316 µM) 28.5% | viability, T/C (second compound 0.0949 µM, first compound 0.01 µM) 31.4% | viability, T/C (second compound 0.0949 µM, first compound 0.0316 µM) 26.9% | viability, T/C (second compound 0.0949 µM, first compound 0.1 µM) 27.3% | viability, T/C (second compound 0.0949 µM, first compound 0.316 µM) 24.9% | viability, T/C (second compound 0.0949 µM, first compound 1 µM) 32.7% | viability, T/C (second compound 0.3 µM, first compound 0.00316 µM) 25.8% | viability, T/C (second compound 0.3 µM, first compound 0.01 µM) 30% | viability, T/C (second compound 0.3 µM, first compound 0.0316 µM) 24.4% | viability, T/C (second compound 0.3 µM, first compound 0.1 µM) 26.2% | viability, T/C (second compound 0.3 µM, first compound 0.316 µM) 26% | viability, T/C (second compound 0.3 µM, first compound 1 µM) 29.3%
> 8.50: pIC50 (second compound 0.000949 µM) | pIC50 (second compound 0.003 µM) | pIC50 (second compound 0.00949 µM) | pIC50 (second compound 0.03 µM) | pIC50 (second compound 0.0949 µM) | pIC50 (second compound 0.3 µM)
